Columns and labels:
Assay type in all cases: in vivo
[1] = system: Echinochloa crus-galli; test: Test Example 11: herbicidal effect test by soil treatment in paddy field; details: 120 g/10a active ingredient, 14 days after treatment
How it was run: (§1)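 Seeds were sown 0-1 cm deep in puddled, fertilised paddy soil in Wagner pots and kept under about 3 cm of flooding in a greenhouse. Diluted emulsifiable concentrate was added dropwise right after sowing at 120 g a.i. per 10 are. Suppression (%) came from dry weight versus untreated pots after 14 days, two replicates.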

[2] = system: Lindernia pyxidaria; test: as above; details: 120 g/10a active ingredient, 14 days after treatment
How it was run: as §1

[3] = system: Monochoria vaginalis; test: as above; details: 120 g/10a active ingredient, 14 days after treatment
How it was run: as §1

[4] = system: Scirpus juncoides; test: as above; details: 120 g/10a active ingredient, 14 days after treatment
How it was run: as §1

[5] = system: Echinochloa crus-galli; test: Test Example 12: herbicidal effect test by treatment during growing period in paddy field; details: 120 g/10a; treatment seven days after sowing in flooded paddy pot; assessed 14 days after treatment
How it was run: (§2)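 Growing-period treatment in flooded paddy pots: the diluted emulsifiable concentrate was dripped in at 120 g a.i. per 10 are seven days after seeding. Inhibition is expressed as percent reduction in dry weight versus untreated pots, measured 14 days later in duplicate.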

[6] = system: Lindernia pyxidaria; test: as above; details: 120 g/10a; treatment seven days after sowing in flooded paddy pot; assessed 14 days after treatment
How it was run: as §2

[7] = system: Monochoria vaginalis; test: as above; details: 120 g/10a; treatment seven days after sowing in flooded paddy pot; assessed 14 days after treatment
How it was run: as §2

[8] = system: Scirpus juncoides; test: as above; details: 120 g/10a; treatment seven days after sowing in flooded paddy pot; assessed 14 days after treatment
How it was run: as §2

[9] = system: Amaranthus viridis; test: Test Example 13: herbicidal effect test by soil treatment in upland field; details: 120 g/10a, 14 days after treatment
Experimental: (§3) A pot having a size of 36 cm^2 was filled with field soil (alluvial soil) and after mixing the soil of the surface layer of 1 cm with 20 grains of each weed seed of crabgrass, Echinochloa crus-galli, Chenopodium album and Amaranthus viridis, the surface layer was pressed lightly. One day after the sowing, an emulsifiable concentrate prepared according to Formulation Example 15 by using the compound shown in Table 11 below was diluted with water, and the water-diluted formulation was sprayed on the soil surface at a ratio of 100 liter per 10 are. The application rate of the active ingredient, by conversion, corresponded to 120 g per 10 are. Fourteen Days after the formulation treatment, the herbicidal effect was evaluated by the same criteria as in Test Example 11.

[10] = system: Chenopodium album; test: as above; details: 120 g/10a, 14 days after treatment
Experimental: as §3

[11] = system: Echinochloa crus-galli; test: as above; details: 120 g/10a, 14 days after treatment
Experimental: as §3

[12] = system: crabgrass; test: as above; details: 120 g/10a, 14 days after treatment
Experimental: as §3

SMILES	Weed suppression rate (%) Echinochloa crus-galli [1]	Weed suppression rate (%) Lindemia pyxidaria [2]	Weed suppression rate (%) Monochoria vaginalis [3]	Weed suppression rate (%) Scirpus juncoides [4]	Weed suppression rate (%) Echinochloa crus-galli [5]	Weed suppression rate (%) Lindemia pyxidaria [6]	Weed suppression rate (%) Monochoria vaginalis [7]	Weed suppression rate (%) Scirpus juncoides [8]	herbicidal effect, Amaranthus viridis [9]	herbicidal effect, Chenopodium album [10]	herbicidal effect, Echinochloa crus-galli [11]	herbicidal effect, Crabgrass [12]
Cc1cc(F)ccc1N(C(=O)n1cnn(S(C)(=O)=O)c1=O)C(C)C [Compound 11-25]	90%	70%	60%	90%	100%	70%	70%	100%	30%	30%	80%	100%
CC(C)N(C(=O)n1cnn(S(=O)(=O)C(F)(F)F)c1=O)c1ccc(F)cc1F [Compound 11-95]	100%	100%	50%	100%	90%	60%	90%	70%	0%	0%	70%	70%
Cc1cc(F)ccc1N(C(=O)n1cnn(S(=O)(=O)C2CC2)c1=O)C(C)C [Compound 11-211]	100%	100%	80%	90%	100%	80%	80%	100%	70%	70%	100%	100%
CC(C)N(C(=O)n1cnn(S(=O)(=O)C2CC2)c1=O)c1ccc(C#N)cc1Cl [Compound 11-222]	90%	80%	80%	90%	90%	80%	80%	90%	90%	80%	80%	90%
CC(C)N(C(=O)n1cnn(S(=O)(=O)C2CCCCC2)c1=O)c1ccccc1F [Compound 11-284]	100%	100%	100%	100%	100%	100%	100%	90%	90%	80%	80%	90%
Cc1ccc(N(C(=O)n2cnn(S(=O)(=O)C3CCCCC3)c2=O)C(C)C)c(F)c1 [Compound 11-308]	90%	90%	90%	90%	90%	80%	80%	90%	90%	80%	80%	90%
Cc1cc(Cl)ccc1N(C(=O)n1cnn(S(=O)(=O)C2CCCCC2)c1=O)C(C)C [Compound 11-309]	90%	80%	80%	90%	90%	80%	80%	90%	90%	80%	80%	90%
